The target in the experiment is TbAQP2/HAPT1 (Trypanosoma brucei brucei, UniProt Q6ZXT3). Description: cell-based. Type of experiment: cell-based.
Setting [1] is: Gibbs free energy of binding to HAPT.
The mark [2] stands for this setting: NI/NE with the concentration tested, read-out: HAPT Ki, AVG.

“And” between values parts separate entries of the source, which are not always exact repeats. Equal entries are not always repeated. Structures can show the parent of a compound that is named as a salt. Where two headings read alike, the source gives them in different places.

Chain of TbAQP2/HAPT1 (Q6ZXT3 whole entry): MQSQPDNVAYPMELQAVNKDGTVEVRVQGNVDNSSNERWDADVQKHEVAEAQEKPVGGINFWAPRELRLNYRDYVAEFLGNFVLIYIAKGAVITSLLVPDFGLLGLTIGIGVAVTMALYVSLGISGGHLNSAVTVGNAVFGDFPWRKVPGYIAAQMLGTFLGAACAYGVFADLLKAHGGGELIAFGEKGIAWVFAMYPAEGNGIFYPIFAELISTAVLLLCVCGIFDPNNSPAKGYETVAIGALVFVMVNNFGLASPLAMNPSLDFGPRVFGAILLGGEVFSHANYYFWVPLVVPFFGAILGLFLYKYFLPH

Consider `N=C(N)c1ccc(OCCCCCCCOc2ccc(C(=N)N)cc2)cc1` [Heptamidine], for which the ΔG0 is given as -39.4 kJ/mol and the “δ(ΔG^0) PMD” value is listed as 3.1 kJ/mol. Further, the Ki (usually the dissociation constant of the complex between target and ligand, obtained from inhibition or displacement) (Ki) was found to be 0.123 ± 0.01 µM.
Take `N=C(N)c1ccc(OCCCCCCOc2ccc(C(=N)N)cc2)cc1` [Hexamidine]: the ΔG0 is recorded as -41.3 kJ/mol and the “δ(ΔG^0) PMD” value is on record as 1.3 kJ/mol. The Ki (Ki) is 0.058 ± 0.011 µM.
On to `N=C(N)c1ccc(OCCCCOc2ccc(C(=N)N)cc2)cc1` [Chainlength 4], for which the affinity (Ki value, Mean), expressed as Ki, was 3.91 µM.
On to `N=C(N)c1ccc(OCCCCCCCCOc2ccc(C(=N)N)cc2)cc1` [Octamidine], for which the ΔG0 is recorded as -32.3 kJ/mol and the “δ(ΔG^0) PMD” value worked out at 10.2 kJ/mol. In addition, the Ki (Ki) turned out to be 2.16 ± 0.48 µM.
Consider `Cl.Cl.N=C(N)c1ccc(OCCOc2ccc(C(=N)N)cc2)cc1.O.O` [Ethamidine, 4,4'-(ethane-1,2-diylbis(oxy))dibenzimidamide dihydrochloride dihydrate], for which the “δ(ΔG0)” value is listed as above 19.7 kJ/mol and the “δ(ΔG^0) PMD” value was above 19.7 kJ/mol. For the setting “Ki”, this molecule registered an inhibition constant Ki above 100 µM.
As to `O=C(CCc1ccc(O)cc1)c1c(O)cc(O)cc1O` [Phloretin], the ΔG0 is recorded as -32.8 kJ/mol and the “δ(ΔG0)” value stood at 9.7 kJ/mol. This molecule also registered a Ki (Ki) of 1.76 µM.
For `Cn1c([N+](=O)[O-])cnc1-c1nnc(N)s1` [megazol], the “HAPT Ki, AVG” value is “NE, 250” and the Ki result is reported as “failed to inhibit”.
Turning to `N=C(N)c1ccc(OCCCCCOc2ccc(C(=N)N)nc2)cn1` [RT-53], the “HAPT Ki, AVG” value is listed as “NI, 250”; the Ki result is “completely inactive”; the “δ(ΔG0)” value was above 22 kJ/mol; the “δ(ΔG^0) PMD” value is recorded as above 22 kJ/mol. For the setting “Ki”, this molecule gave a Ki above 250 µM.
The molecule `N=C(N)c1ccc(OCCCCCCCOc2ccc(C(=N)N)cc2)cc1` [Chainlength 7] gave a Ki (Ki value, Mean) of 0.125 µM.
`Cl.Cl.c1cc(-c2ccc(-c3ccc(CCC4=NCCN4)cc3)o2)ccc1CCC1=NCCN1` [DB1062, 2,5-bis(4-(2-(4,5-dihydro-1H-imidazol-2-yl)ethyl)phenyl) furan dihydrochloride]: the ΔG0 is listed as -24.1 kJ/mol and the “δ(ΔG^0) PMD” value turned out to be 18.4 kJ/mol. The inhibitory constant (Ki) (Ki) stood at 59.6 ± 11.2 µM.
As for `N=C(N)c1ccc(-c2ccc(-c3ccc(C(=N)N)nc3)o2)cn1` [DB994], the ΔG0 is reported as -21.6 kJ/mol and the “δ(ΔG^0) PMD” value is 21.0 kJ/mol. Also, the Ki (Ki) was 167 ± 20 µM.
`N=C(N)c1ccc(OCCCCCCCCOc2ccc(C(=N)N)cc2)cc1` [Chainlength 8] gave a Ki (Ki value, Mean) of 2.2 µM.
With `Cl.N=C(N)c1ccc(OCCCCOc2ccccc2)cc1.O` [CHI/1/69/1, 4-(4-Phenoxybutoxy)benzimidamide hydrochloride hydrate], the ΔG0 is on record as -32.2 kJ/mol and the “δ(ΔG^0) PMD” value is reported as 10.4 kJ/mol. In addition, the Ki (Ki) is 2.33 µM and 2.3 µM.
On to `N=C(N)CCc1ccc(-c2ccc(-c3ccc(CCC(=N)N)cc3)s2)cc1` [DB1063, 3,3'-(thiophene-2,5-diylbis(4,1-phenylene)) dipropanimidamide dihydrochloride], for which the ΔG0 is listed as -36.5 kJ/mol and the “δ(ΔG^0) PMD” value is on record as 6.0 kJ/mol. Also, for the setting “Ki”, the Ki was determined as 0.4 ± 0.1 µM.
Regarding `N=C(N)c1ccc(OCCCCCOc2ccc(C(=N)N)cc2C(N)=O)c(C(N)=O)c1` [RT-46], the Ki result is listed as “no affinity at all” and the “δ(ΔG^0) PMD” value was above 19.7 kJ/mol. Where the note is “Ki”, this molecule came in with an inhibitory constant (Ki) above 100 µM.
Regarding `N=C(N)c1ccc(-c2ccc(-c3ccc(C(=N)N)cn3)o2)cc1` [DB820], under setting [1], the ΔG0 is -24.9 kJ/mol. Moreover, under setting [2], the Ki was 43.4 µM. Moreover, the “δ(ΔG0)” value (relative to pentamidine (0)) is given as 17.7 kJ/mol.
Regarding `N=C(N)c1ccc(S(=O)(=O)CCCCCS(=O)(=O)c2ccc(C(=N)N)cc2)cc1` [RT-49], the Ki result is on record as “no binding affinity”, the “δ(ΔG0)” value is recorded as above 20.7 kJ/mol and the “δ(ΔG^0) PMD” value is recorded as above 20.7 kJ/mol. Besides, under “Ki”, the Ki was above 150 µM.
As to `N=C(N)c1ccc(-c2cc3ccc(C(=N)N)cc3[nH]2)cc1` [DAPI], the ΔG0 was -26.1 kJ/mol and the “δ(ΔG0)” value was determined as 16.4 kJ/mol. Moreover, the Ki (read-out: HAPT Ki, AVG) came to 26.4 µM.
On to `c1cc(NC2=NCCN2)ccc1CCc1ccc(NC2=NCCN2)cc1` [FR39], for which the ΔG0 is given as -25.0 kJ/mol and the “δ(ΔG^0) PMD” value was determined as 17.6 kJ/mol. The same molecule had a Ki (Ki) of 41.7 ± 15.2 µM.
Regarding `N=C(N)c1ccc(O)cc1` [4-hydroxybenzamidine], the ΔG0 is on record as -14.5 kJ/mol and the “δ(ΔG^0) PMD” value was found to be 28.1 kJ/mol. Further, where the note is “HAPT Ki, AVG”, affinity was put at a Ki of 2890 µM. The Ki (Ki) is 2900 µM.
With `Cn1c(-c2ccc(-c3ccc(C(=N)N)cc3)o2)nc2ccccc21` [DB960, 4-(5-(1-methyl-1H-benzo[d]imidazol-2-yl)furan-2-yl) benzimidamide dihydrochloride], the ΔG0 is -27.3 kJ/mol and the “δ(ΔG^0) PMD” value was 15.3 kJ/mol. The same molecule came in with a Ki (Ki) of 16.6 ± 3.5 µM.
Regarding `N=C(N)c1ccc(-c2ccc(-c3ccc(C(=N)N)cn3)o2)nc1` [DB829], the ΔG0 is on record as -25.1 kJ/mol and the “δ(ΔG^0) PMD” value turned out to be 17.4 kJ/mol. Where the note is “Ki”, the Ki came out at 39.9 ± 8 µM.
As to `N=C(N)c1ccc(OCCCOc2ccc(C(=N)N)cc2)cc1` [Chainlength 3], the Ki (Ki value, Mean) is 7.2 µM.
Regarding `O=c1ccc2[n+]([O-])c3ccc(O)cc3oc-2c1` [resazurin], the ΔG0 is reported as -21.7 kJ/mol and the “δ(ΔG0)” value is recorded as 20.8 kJ/mol. The affinity (HAPT Ki, AVG), expressed as Ki, was 155 µM.
Where the note is “Ki value, Mean”, `N=C(N)c1ccc(OCCCCCOc2ccc(C(=N)N)cc2)cc1` [Chainlength 5] registered an inhibition constant (Ki) of 0.0364 µM.
Take `N=C(N)c1ccc(-c2csc(-c3ccc(C(=N)N)cc3)c2)cc1` [DB1077, 4,4'-(thiophene-2,4-diyl) dibenzimidamide dihydrochloride]: the ΔG0 is -27.7 kJ/mol and the “δ(ΔG^0) PMD” value came out at 14.8 kJ/mol. For the same molecule, where the note is “Ki”, the Ki was 13.8 ± 3.1 µM.
For `N=C(N)c1ccc(OCCCCOc2ccc(C(=N)N)cc2)cc1` [Butamidine, 4,4’-(Butane-l ,4-diylbis(oxy))dibenzimiamide dihydrochloride dihydrate], the ΔG0 is reported as -30.9 kJ/mol and the “δ(ΔG^0) PMD” value stood at 11.7 kJ/mol. For the same molecule, the inhibitory constant (Ki) (Ki) came out at 3.87 ± 1.38 µM.
For `N=C(N)CCc1ccc(-c2ccc(-c3ccc(CCC(=N)N)cc3)o2)cc1` [DB1061, 3,3'-(furan-2,5-diylbis (4,1-phenylene)) dipropanimidamide dihydrochloride], the ΔG0 is reported as -25.6 kJ/mol and the “δ(ΔG^0) PMD” value amounted to 16.9 kJ/mol. For the setting “Ki”, the Ki is 32.3 ± 6 µM.
On to `N=C(N)c1ccc(OCCOCCOc2ccc(C(=N)N)cc2)cc1` [DB1699], for which the ΔG0 is on record as -27.3 kJ/mol and the “δ(ΔG^0) PMD” value was 15.3 kJ/mol. This molecule also yielded an inhibitory constant (Ki) (Ki) of 16.6 ± 2.1 µM.
Consider `N=C(N)c1cccc(OCCCCCOc2cccc(C(=N)N)c2)c1` [Meta-pentamidine RT40], for which the ΔG0 is on record as -23.9 kJ/mol and the “δ(ΔG0)” value is 18.6 kJ/mol. The Ki (HAPT Ki, AVG) was 64.2 µM.
On to `N=C(N)Nc1ccc(-c2ccc(-c3ccc(NC(=N)N)cc3)s2)cc1` [DB686], for which the ΔG0 is -37.3 kJ/mol and the “δ(ΔG^0) PMD” value is on record as 5.2 kJ/mol. Where the note is “Ki”, this molecule yielded a Ki of 0.29 ± 0.11 µM.
Regarding `N=C(N)c1ccc(OCCCCCCOc2ccc(C(=N)N)cc2)cc1` [Chainlength 6], for the setting “Ki value, Mean”, the affinity corresponds to a Ki of 0.059 µM.
As to `N=C(N)NCCCCCCCCCCN=C(N)N.O=S(=O)(O)O` [Synthalin sulphate], the ΔG0 under setting [1] is -20.4 kJ/mol. The Ki under setting [2] amounted to 270 µM. Besides, the “δ(ΔG0)” value (relative to pentamidine (0)) was determined as 22.2 kJ/mol.
Regarding `N=C(N)c1ccc(-c2csc(-c3ccc(C(=N)N)cc3)n2)cc1` [ER1004, 4,4'-(thiazole-2,4-diyl)dibenzimidamide], the ΔG0 is -23.8 kJ/mol and the “δ(ΔG^0) PMD” value is 18.8 kJ/mol. For the setting “Ki”, this molecule returned a Ki of 68.7 ± 16 µM.
For the molecule `Cl.Cl.N=C(N)c1ccc(OCCCOc2ccc(C(=N)N)cc2)cc1.O.O` [Propamidine, 4,4’-(propane-1,3-diylbis(oxy))dibenzimidamide dihydrochloride dihydrate], the ΔG0 is recorded as -29.6 kJ/mol and the “δ(ΔG^0) PMD” value stood at 13.0 kJ/mol. For the same molecule, the Ki (Ki) was 6.63 ± 1.4 µM.
Take `COc1cc(/C=C/C(=O)CC(=O)/C=C/c2ccc(O)c(OC)c2)ccc1O` [curcumin]: the Ki entry is “failed to inhibit”, the ΔG0 is reported as -19.4 kJ/mol and the “δ(ΔG0)” value is on record as 23.2 kJ/mol. This molecule yielded an inhibition constant Ki (HAPT Ki, AVG) of 398 µM.
As to `N=C(N)c1ccc(OCCCOc2ccc(C(=O)O)cc2)cc1` [RT-38], the “HAPT Ki, AVG” value is recorded as “NI, 100” and the “δ(ΔG^0) PMD” value is reported as above 19.7 kJ/mol. Further, the Ki (Ki) is above 100 µM.
`Cn1c(-c2ccc(C(=N)N)cc2)ccc1-c1ccc(C(=N)N)cc1` [DB320]: the ΔG0 was -23.7 kJ/mol and the “δ(ΔG^0) PMD” value is 18.9 kJ/mol. For the same molecule, the Ki (Ki) came to 71.3 ± 12.1 µM.
As for `CON1CCN=C1Nc1ccc(CCc2ccc(NC3=NCCN3OC)cc2)cc1` [CRMI8], the ΔG0 was -24.4 kJ/mol and the “δ(ΔG^0) PMD” value was 18.1 kJ/mol. For the same molecule, for the setting “Ki”, the Ki was determined as 52.8 ± 12.7 µM.
For `N=C(N)c1ccc(-c2ccc(-c3ccc(-c4ccc(C(=N)N)cc4)o3)o2)cc1` [DB914], the ΔG0 is reported as -40.7 kJ/mol and the “δ(ΔG^0) PMD” value is given as 1.8 kJ/mol. For the same molecule, under “Ki”, the Ki was found to be 0.073 ± 0.013 µM.
With `COc1ccc(-c2ccc(-c3ccc(C(=N)N)cc3)o2)cc1` [DB607, 4-(5-(4-methoxyphenyl)furan-2-yl) benzimidamide hydrochloride], the ΔG0 is given as -27.1 kJ/mol and the “δ(ΔG^0) PMD” value stood at 15.5 kJ/mol. Further, the Ki (Ki) stood at 18.1 ± 1.9 µM.
Take `N=C(N)c1ccc(/C=C/c2ccc(C(=N)N)cc2)cc1` [Stilbamidine]: the ΔG0 was -24.3 kJ/mol and the “δ(ΔG^0) PMD” value amounted to 18.3 kJ/mol. Further, under “HAPT Ki, AVG”, the Ki was found to be 54.8 µM. Also, affinity (Ki) was put at a Ki of 54.8 ± 3.2 µM.

Values taken from PMC7473772 (eLife, 2020).
